Data published in the Kinase Knowledgebase extract (Sharma et al. 2016).

Columns and labels:
CDK2 [1] = biological target: CDK2 (UniProt P24941); test: Enzyme Assay
MAPK14 = MAPK14 (UniProt Q16539); test: SAPK2-alpha Kinase Inhibition
CDK2 [2] = biological target: CDK2 (UniProt P24941)

MAPK14, sequence (Q16539 whole entry, looked up): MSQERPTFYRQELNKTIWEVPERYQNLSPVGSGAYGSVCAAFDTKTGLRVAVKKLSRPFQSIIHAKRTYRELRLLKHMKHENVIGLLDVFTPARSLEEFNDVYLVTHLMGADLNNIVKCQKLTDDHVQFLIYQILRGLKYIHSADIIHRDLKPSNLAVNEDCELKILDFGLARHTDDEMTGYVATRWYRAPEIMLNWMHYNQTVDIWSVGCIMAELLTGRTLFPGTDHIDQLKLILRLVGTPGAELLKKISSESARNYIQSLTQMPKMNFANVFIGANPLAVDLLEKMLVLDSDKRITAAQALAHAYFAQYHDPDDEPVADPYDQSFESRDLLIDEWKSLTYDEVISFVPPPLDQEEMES

Row | SMILES | IC50 (CDK2 [1]) [µM] | IC50 (MAPK14) [µM] | IC50 (CDK2 [2]) [µM]
1 | CNc1nc(C)c(-c2ccnc(Nc3ccc(F)c(F)c3)n2)s1 | 1.2 |  | 
2 | Cc1nc(C)c(-c2ccnc(Nc3ccc(Cc4ccncc4)cc3)n2)s1 | 0.7 |  | 
3 | Cc1nc(C)c(-c2ccnc(Nc3cccc(NC(=N)N)c3)n2)s1 | 1.4 |  | 
4 | CNc1nc(C)c(-c2ccnc(Nc3ccc(Cl)c(C(F)(F)F)c3)n2)s1 | 10 |  | 
5 | CNc1nc(C)c(-c2ccnc(Nc3cccc(Cl)c3)n2)s1 | 3 |  | 
6 | CNc1nc(C)c(-c2ccnc(Nc3cc(F)cc(F)c3)n2)s1 | 2 |  | 
7 | CNc1nc(C)c(-c2ccnc(Nc3cccc(F)c3)n2)s1 | 0.6 |  | 
8 | Cc1nc(C)c(-c2ccnc(Nc3cccc([N+](=O)[O-])c3)n2)s1 |  | > 20 | 
9 | Cc1nc(C)c(-c2ccnc(Nc3ccc(Cl)cc3)n2)s1 |  | > 20 | 9
10 | COCCOC(=O)c1cc(Nc2nccc(-c3sc(C)nc3C)n2)ccc1F | 0.6 |  | 
11 | Cc1nc(C)c(-c2ccnc(Nc3ccc(F)cc3)n2)s1 |  | > 20 | 
12 | Cc1nc(C)c(-c2ccnc(Nc3ccc([N+](C)(C)C)cc3)n2)s1 | 1.5 |  | 
13 | COc1ccc(Nc2nccc(-c3sc(C)nc3C)n2)c(O)c1 | 0.6 |  | 
14 | CNc1nc(C)c(-c2ccnc(Nc3ccc(OC)cc3)n2)s1 | 0.8 |  | 
15 | COC(=O)c1cc(Nc2nccc(-c3sc(C)nc3C)n2)ccc1Cl | 1.1 |  | 
